Data taken from article PMC12584634, “Carglumic acid and mesalazine as potential anti-mycobacterial agents: a spectroscopic study for repurposing drugs against Mycobacterium tuberculosis targeting its essential enzyme ThyX” (Microbiology Spectrum, 2025).

Biological target: ThyX (Rv2754c), flavin-dependent thymidylate synthase (Mycobacterium tuberculosis, UniProt P9WG57)
Assay: intrinsic fluorescence quenching, modified Stern-Volmer
Assay type: binding
Settings: 303 K, 5 µM protein, n ~1, double-log
Text: intrinsic fluorescence quenching, modified Stern-Volmer on ThyX (Rv2754c), flavin-dependent thymidylate synthase

Chain of ThyX (Rv2754c), flavin-dependent thymidylate synthase (P9WG57 whole entry, looked up): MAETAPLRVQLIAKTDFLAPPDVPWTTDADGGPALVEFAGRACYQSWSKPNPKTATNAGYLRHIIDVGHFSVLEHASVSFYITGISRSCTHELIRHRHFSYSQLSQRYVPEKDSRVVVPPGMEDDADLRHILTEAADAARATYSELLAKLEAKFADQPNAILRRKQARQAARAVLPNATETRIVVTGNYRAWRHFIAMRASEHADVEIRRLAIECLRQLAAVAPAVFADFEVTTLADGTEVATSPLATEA

Compound | Ka (× 10^6 mol^-1) (PBS pH 7.4, excitation 280 nm) | Ka (× 10^6 mol^-1) (positive control, text prints unit as M^−1s^−1)
NC(=O)N[C@@H](CCC(=O)O)C(=O)O [carglumic acid] | 4.28 × 10^6 mol^−1 | –
Nc1ccc(O)c(C(=O)O)c1 [mesalazine] | 4.73 × 10^6 mol^−1 | –
Nc1ccc(C(=O)O)c(O)c1 [para-amino salicylic acid, reference compound] | – | 3.44 × 10^6 mol^−1
